#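 Assay format: 96-well plates, 48-hour exposure. GI50 is the concentration that inhibits growth by half. TGI is the concentration that stops growth completely.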
# Legend:
# Experiment in all cases: growth of human tumour cells (NCI), 48 h
# 786-0 renal = system: 786-0 renal
# A498 renal = system: A498 renal
# A549 NSCLC = system: A549 NSCLC
# ACHN renal = system: ACHN renal
# BT-549 breast = system: BT-549 breast
# CAKI-1 renal = system: CAKI-1 renal
# CCRF-CEM leukemia = system: CCRF-CEM leukemia
# COLO 205 colon = system: COLO 205 colon
# DU-145 prostate = system: DU-145 prostate
# EKVX NSCLC = system: EKVX NSCLC
# HCC-2998 colon = system: HCC-2998 colon
# HCT-116 colon = system: HCT-116 colon
# HCT-15 colon = system: HCT-15 colon
# HL-60(TB) leukemia = system: HL-60(TB) leukemia
# HOP-62 NSCLC = system: HOP-62 NSCLC
# HOP-92 NSCLC = system: HOP-92 NSCLC
# HS 578T breast = system: HS 578T breast
# HT29 colon = system: HT29 colon
# IGROV1 ovarian = system: IGROV1 ovarian
# K-562 leukemia = system: K-562 leukemia
# KM12 colon = system: KM12 colon
# LOX IMVI melanoma = system: LOX IMVI melanoma
# M14 melanoma = system: M14 melanoma
# MALME-3M melanoma = system: MALME-3M melanoma
# MCF7 breast = system: MCF7 breast
# MDA-MB-231 breast = system: MDA-MB-231 breast
# MDA-MB-435 = system: MDA-MB-435
# MOLT-4 leukemia = system: MOLT-4 leukemia
# NCI-H226 lung = system: NCI-H226 lung
# NCI-H23 lung = system: NCI-H23 lung
# NCI-H460 lung = system: NCI-H460 lung
# NCI-H522 lung = system: NCI-H522 lung
# NCI/ADR-RES ovarian = system: NCI/ADR-RES ovarian
# OVCAR-3 ovarian = system: OVCAR-3 ovarian
# OVCAR-4 ovarian = system: OVCAR-4 ovarian
# OVCAR-5 ovarian = system: OVCAR-5 ovarian
# OVCAR-8 ovarian = system: OVCAR-8 ovarian
# PC-3 prostate = system: PC-3 prostate
# RPMI-8226 leukemia = system: RPMI-8226 leukemia
# RXF 393 renal = system: RXF 393 renal
# SF-295 CNS = system: SF-295 CNS
# SF-539 CNS = system: SF-539 CNS
# SK-MEL-2 melanoma = system: SK-MEL-2 melanoma
# SK-MEL-28 melanoma = system: SK-MEL-28 melanoma
# SK-MEL-5 melanoma = system: SK-MEL-5 melanoma
# SK-OV-3 ovarian = system: SK-OV-3 ovarian
# SN12C renal = system: SN12C renal
# SNB-19 CNS = system: SNB-19 CNS
# SNB-75 CNS = system: SNB-75 CNS
# SR leukemia = system: SR leukemia
# T-47D breast = system: T-47D breast
# TK-10 renal = system: TK-10 renal
# U251 CNS = system: U251 CNS
# UACC-257 melanoma = system: UACC-257 melanoma
# UACC-62 melanoma = system: UACC-62 melanoma
# UO-31 renal = system: UO-31 renal
compound,measurement,setting,value
Nc1ncnc2c1c(-c1ccc(Oc3ccccc3)cc1)nn2C[C@H]1SSC[C@@H]1O,GI50,786-0 renal,3090 nM
same,TGI,786-0 renal,12000 nM
same,GI50,A498 renal,1660 nM
same,TGI,A498 renal,4440 nM
same,GI50,A549 NSCLC,519 nM
same,TGI,A549 NSCLC,6810 nM
same,GI50,ACHN renal,482 nM
same,TGI,ACHN renal,9300 nM
same,GI50,BT-549 breast,3630 nM
same,TGI,BT-549 breast,13500 nM
same,GI50,CAKI-1 renal,1620 nM
same,TGI,CAKI-1 renal,12700 nM
same,GI50,CCRF-CEM leukemia,200 nM
same,TGI,CCRF-CEM leukemia,6280 nM
same,GI50,COLO 205 colon,2060 nM
same,TGI,COLO 205 colon,9820 nM
same,GI50,DU-145 prostate,1700 nM
same,TGI,DU-145 prostate,10600 nM
same,GI50,EKVX NSCLC,365 nM
same,TGI,EKVX NSCLC,12100 nM
same,GI50,HCC-2998 colon,3300 nM
same,TGI,HCC-2998 colon,27600 nM
same,GI50,HCT-116 colon,332 nM
same,TGI,HCT-116 colon,12300 nM
same,GI50,HCT-15 colon,622 nM
same,TGI,HCT-15 colon,16400 nM
same,GI50,HL-60(TB) leukemia,1520 nM
same,TGI,HL-60(TB) leukemia,4840 nM
same,GI50,HOP-62 NSCLC,260 nM
same,TGI,HOP-62 NSCLC,3150 nM
same,GI50,HOP-92 NSCLC,1620 nM
same,TGI,HOP-92 NSCLC,7150 nM
same,GI50,HS 578T breast,2810 nM
same,TGI,HS 578T breast,10600 nM
same,GI50,HT29 colon,304 nM
same,TGI,HT29 colon,7350 nM
same,GI50,IGROV1 ovarian,1430 nM
same,TGI,IGROV1 ovarian,8110 nM
same,GI50,K-562 leukemia,342 nM
same,TGI,K-562 leukemia,4080 nM
same,GI50,KM12 colon,242 nM
same,TGI,KM12 colon,16400 nM
same,GI50,LOX IMVI melanoma,257 nM
same,TGI,LOX IMVI melanoma,1790 nM
same,GI50,M14 melanoma,71 nM
same,TGI,M14 melanoma,206 nM
same,GI50,MALME-3M melanoma,826 nM
same,TGI,MALME-3M melanoma,3940 nM
same,GI50,MCF7 breast,289 nM
same,TGI,MCF7 breast,4370 nM
same,GI50,MDA-MB-231 breast,934 nM
same,TGI,MDA-MB-231 breast,7840 nM
same,GI50,MDA-MB-435,162 nM
same,TGI,MDA-MB-435,324 nM
same,GI50,MOLT-4 leukemia,82.5 nM
same,TGI,MOLT-4 leukemia,361 nM
same,GI50,NCI-H226 lung,1730 nM
same,TGI,NCI-H226 lung,5150 nM
same,GI50,NCI-H23 lung,830 nM
same,TGI,NCI-H23 lung,21400 nM
same,GI50,NCI-H460 lung,44.5 nM
same,TGI,NCI-H460 lung,206 nM
same,GI50,NCI-H522 lung,3850 nM
same,TGI,NCI-H522 lung,14000 nM
same,GI50,NCI/ADR-RES ovarian,2730 nM
same,TGI,NCI/ADR-RES ovarian,37100 nM
same,GI50,OVCAR-3 ovarian,251 nM
same,TGI,OVCAR-3 ovarian,684 nM
same,GI50,OVCAR-4 ovarian,1440 nM
same,TGI,OVCAR-4 ovarian,19800 nM
same,GI50,OVCAR-5 ovarian,6350 nM
same,TGI,OVCAR-5 ovarian,41000 nM
same,GI50,OVCAR-8 ovarian,523 nM
same,TGI,OVCAR-8 ovarian,15900 nM
same,GI50,PC-3 prostate,3010 nM
same,TGI,PC-3 prostate,18200 nM
same,GI50,RPMI-8226 leukemia,4200 nM
same,TGI,RPMI-8226 leukemia,20400 nM
same,GI50,RXF 393 renal,1740 nM
same,TGI,RXF 393 renal,5750 nM
same,GI50,SF-295 CNS,1950 nM
same,TGI,SF-295 CNS,9900 nM
same,GI50,SF-539 CNS,1410 nM
same,TGI,SF-539 CNS,12000 nM
same,GI50,SK-MEL-2 melanoma,262 nM
same,TGI,SK-MEL-2 melanoma,2330 nM
same,GI50,SK-MEL-28 melanoma,147 nM
same,TGI,SK-MEL-28 melanoma,403 nM
same,GI50,SK-MEL-5 melanoma,545 nM
same,TGI,SK-MEL-5 melanoma,1790 nM
same,GI50,SK-OV-3 ovarian,593 nM
same,TGI,SK-OV-3 ovarian,3710 nM
same,GI50,SN12C renal,1360 nM
same,TGI,SN12C renal,13200 nM
same,GI50,SNB-19 CNS,1400 nM
same,TGI,SNB-19 CNS,12000 nM
same,GI50,SNB-75 CNS,3020 nM
same,TGI,SNB-75 CNS,14800 nM
same,GI50,SR leukemia,165 nM
same,TGI,SR leukemia,627 nM
same,GI50,T-47D breast,685 nM
same,TGI,T-47D breast,3630 nM
same,GI50,TK-10 renal,585 nM
same,TGI,TK-10 renal,2540 nM
same,GI50,U251 CNS,1450 nM
same,TGI,U251 CNS,13200 nM
same,GI50,UACC-257 melanoma,374 nM
same,TGI,UACC-257 melanoma,16100 nM
same,GI50,UACC-62 melanoma,276 nM
same,TGI,UACC-62 melanoma,939 nM
same,GI50,UO-31 renal,1680 nM
same,TGI,UO-31 renal,5700 nM
